This is an account of results in US11090323B2, “Pharmaceutical composition, methods for treating and uses thereof” (Boehringer Ingelheim International GmbH, priority 2013, dated 2021).

One data set deals with renal glucose absorption. As to the kind of experiment: PK-PD nonlinear mixed-effects model of empagliflozin exposure vs urinary glucose excretion / renal glucose threshold. Format: in vivo, human. From the text: Empagliflozin, a selective and potent SGLT2 inhibitor, reduces renal glucose reabsorption by lowering the renal threshold for glucose (RTG) leading to increased urinary glucose excretion (UGE) and decreased plasma glucose (PG) in patients with type 2 diabetes mellitus (T2DM). This analysis aimed to quantify the impact of empagliflozin on RTG by characterizing the relationship between empagliflozin exposure and UGE in patients with T2DM using nonlinear mixed-effects modeling.
A pharmacokinetic (PK)-pharmacodynamic (PD) model was developed using UGE, PG, PK and estimated glomerular filtration rate (eGFR) data from three Phase I/II trials (N=223; placebo, empagliflozin 1 to 100 mg once daily [QD]). The model assumed that when PG>RTG, UGE increased with increasing PG and eGFR; and when PG≤RTG slight glucose leakage into urine occurred (estimated as fraction reabsorbed [FRAC]). Reabsorption was estimated by a nonlinear function parameterized in terms of maximum reabsorbed glucose concentration (Gmax) and PG concentration to reach half maximum transport (Km). Maximum inhibitory effect (Imax) and half maximal inhibitory concentration (IC50) described inhibition of renal glucose absorption. RTG was calculated as the difference between maximum reabsorption (including drug effect) and KM. The model was evaluated via bootstrap and external predictive check of an empagliflozin renal impairment study.

For data set [1], the system named is patients with T2DM and CKD stage 3A, 3B and 4. As to the kind of experiment: Phase III trial of empagliflozin as add-on to existing therapy in patients with T2DM and CKD stage 3A, 3B and 4. Format: in vivo, human. As to conditions: EMPA 25 mg; for AEs consistent with urinary tract infection, patients / AEs consistent with volume depletion, patients / adverse events (AEs) reported, patients: 52 weeks. How it is done: A Phase III trial investigated the efficacy and safety of empagliflozin (EMPA) as add-on to existing therapy for 52 weeks in patients with T2DM and CKD stage 3A, 3B and 4. Patients with CKD stage 3A (eGFR [MDRD equation] ≥45 to <60 ml/min/1.73 m^2; n=180; mean [SD] age 64.5 [8.0] years; mean [SD] BMI 30.5 [5.2] kg/m^2), CKD stage 3B (eGFR ≥30 to <45 ml/min/1.73 m^2; n=194; mean [SD] age 65.2 [9.0] years; mean [SD] BMI 30.0 [5.4] kg/m^2) or CKD stage 4 (eGFR ≥15 to <30 ml/min/1.73 m^2; n=74; mean [SD] age 64.1 [11.1] years; mean [SD] BMI 30.4 [5.6] kg/m^2) received EMPA 25 mg qd or PBO for 52 weeks. In exploratory analyses, we assessed the long-term efficacy and safety of EMPA, including changes from baseline in HbA1c, fasting plasma glucose (FPG), weight and systolic and diastolic blood pressure (SBP and DBP) at week 52 (FIG. 7).

The subject of data set [2] is patients with T2DM and RI. Nature of the data set: Phase III trial of empagliflozin as add-on to existing therapy in patients with T2DM and renal impairment. Type of data set: in vivo, human. The procedure: A Phase III trial investigated the efficacy and safety of empagliflozin (EMPA) as add-on to existing therapy for 52 weeks in patients with T2DM and RI. Patients with mild RI (eGFR [MDRD equation] ≥60 to <90 mL/min/1.73 m^2; n=290; mean age 62.6 years; mean BMI 31.5 kg/m^2) received EMPA 10 or 25 mg qd or placebo (PBO). Patients with moderate RI (eGFR ≥30 to <60 mL/min/1.73 m^2; n=374; mean age 64.9 years; mean BMI 30.2 kg/m^2) received EMPA 25 mg qd or PBO. The primary endpoint was change from baseline in HbA1c at week 24. Exploratory endpoints included changes from baseline in fasting plasma glucose (FPG), weight and blood pressure (BP) at week 24 (FIG. 1).

In another data set the test system is the diabetic. Conditions: metformin on its own; cited from earlier work.

On to `OC[C@H]1O[C@@H](c2ccc(Cl)c(Cc3ccc(O[C@H]4CCOC4)cc3)c2)[C@H](O)[C@@H](O)[C@@H]1O` [empagliflozin, 1-chloro-4-(β-D-glucopyranos-1-yl)-2-[4-((S)-tetrahydrofuran-3-yloxy)-benzyl]benzene], for which the IC50 in the data set with renal glucose absorption (Homo sapiens, model parameter estimate, three Phase I/II trials, N=223, read-out: IC50, half maximal inhibitory concentration for renal glucose absorption (95% CI)) was 5.28 nM. The “RTG (renal threshold for glucose)” value in the data set on renal glucose absorption (dose 1 mg) came to 100.5 mg/dL; in the data set on renal glucose absorption (dose 5 mg) it was 43.8 mg/dL; in the data set with renal glucose absorption (dose 10 mg), 33.1 mg/dL; in the data set on renal glucose absorption (dose 25 mg) it was 26.0 mg/dL. Further, in the data set on renal glucose absorption (model parameter estimate, three Phase I/II trials, N=223), the “Imax, maximum inhibitory effect on renal glucose absorption (95% CI)” value was 0.559 (0.545, 0.607). The “AEs consistent with urinary tract infection, patients” value was 16.5% in data set [1] (CKD stage 3A); 16.7% in data set [1] (CKD stage 3B); 18.9% in data set [1] (CKD stage 4); 10.2% in data set [2] (EMPA 10 mg qd); 9.0% in data set [2] (EMPA 25 mg qd). In addition, the entries for the “AEs consistent with volume depletion, patients” value in data set [1] (CKD stage 3A), in data set [1] (CKD stage 3B) and in data set [1] (CKD stage 4) were 4.4%, 3.1% and 5.4%, respectively. Further, the “adverse events (AEs) reported, patients” value in data set [1] (CKD stage 3A) is listed as 86.8%; in data set [1] (CKD stage 3B), 80.2%; in data set [1] (CKD stage 4), 91.9%; in data set [2] (EMPA 10 mg qd, week 24, all patients), 79.6%; in data set [2] (EMPA 25 mg qd, week 24, all patients incl. exploratory severe RI group), 75.4%. In addition, the DBP entry in data set [1] (week 52, CKD stage 3A) is listed as “significantly reduced”. Further, the FPG entry in data set [1] (week 52, CKD stage 3A) is “significantly reduced”; in data set [1] (week 52, CKD stage 3B), “significantly reduced”; in data set [1] (week 52, CKD stage 4) it was “Reductions”; in data set [2] (week 24, further analyses), “significant reductions”. Besides, the “HbA1c vs PBO” value in data set [1] (week 52, CKD stage 3A) is “significantly reduced”; in data set [1] (week 52, CKD stage 3B) it was “significantly reduced”; in data set [2] (week 24, mild or moderate RI), “significantly reduced”. Further, in data set [1] (week 52, CKD stage 3A), the SBP result is on record as “significantly reduced”. In addition, the weight entry in data set [1] (week 52, CKD stage 3A) is “significantly reduced”; in data set [1] (week 52, CKD stage 3B) it was “significantly reduced”; in data set [1] (week 52, CKD stage 4), “Reductions”; in data set [2] (week 24, further analyses), “significant reductions”. In addition, the BP entry is recorded as “Reductions” in data set [1] (week 52, CKD stage 4) and “significant reductions” in data set [2] (week 24, further analyses). In addition, the HbA1c result in data set [1] (week 52, CKD stage 4) is “did not reduce”. The results for the “AEs consistent with genital infection, patients” value in data set [2] (EMPA 10 mg qd) and in data set [2] (EMPA 25 mg qd) were 6.1% and 2.5%, respectively. The “Hypoglycemia (plasma glucose ≤70 mg/dL and/or requiring assistance), patients” value in data set [2] (EMPA 10 mg qd) was 23.5%; in data set [2] (EMPA 25 mg qd), 22.1%. For the same molecule, the “difference to placebo for the adjusted mean change in HbA1c from baseline” value in data set [2] (Week 24, moderate A renal impairment) is on record as −0.46%; in data set [2] (Week 24, moderate B renal impairment), −0.39%. In addition, the tolerability result in data set [2] (patients with T2DM and mild or moderate RI) is “well tolerated”.

Turning to `CN(C)C(=N)N=C(N)N` [metformin], the “average improvement in the HbA1c value” with the diabetic is recorded as 1.0-1.5%.
